Measurements: PubChem BioAssay (NCI)
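The compound was tested at five concentrations on cells cultured in 96-well plates, with a 48-hour exposure period. TGI marks complete inhibition of growth.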

Key:
Assay in all cases: NCI anticancer screen, dose series, 48 h
DU-145 prostate = tested on: DU-145 prostate
OVCAR-3 ovarian = tested on: OVCAR-3 ovarian
SK-MEL-5 melanoma = tested on: SK-MEL-5 melanoma
SK-MEL-28 melanoma = tested on: SK-MEL-28 melanoma
LOX IMVI melanoma = tested on: LOX IMVI melanoma
MDA-MB-435 = tested on: MDA-MB-435
HOP-62 NSCLC = tested on: HOP-62 NSCLC
HCT-116 colon = tested on: HCT-116 colon
SF-295 CNS = tested on: SF-295 CNS
RPMI-8226 leukemia = tested on: RPMI-8226 leukemia
SW-620 colon = tested on: SW-620 colon
SK-MEL-2 melanoma = tested on: SK-MEL-2 melanoma

SMILES | TGI (DU-145 prostate) | TGI (OVCAR-3 ovarian) | TGI (SK-MEL-5 melanoma) | TGI (SK-MEL-28 melanoma) | TGI (LOX IMVI melanoma) | TGI (MDA-MB-435) | TGI (HOP-62 NSCLC) | TGI (HCT-116 colon) | TGI (SF-295 CNS) | TGI (RPMI-8226 leukemia) | TGI (SW-620 colon) | TGI (SK-MEL-2 melanoma)
COC(=O)[C@H](Cc1ccccc1)NC(=O)c1ccc(CNC(=O)/C=C/c2ccc(OCc3ccccc3)cc2)cc1 | 32.4 µM | 28.2 µM | 33.4 µM | 25.2 µM | > 100 µM | 12.8 µM | 26.3 µM | > 100 µM | 35.7 µM | > 100 µM | > 100 µM | 7.92 µM
Cn1c(-c2ccc(C=O)o2)ccc1-c1ccc(C=O)o1 | > 100 µM | 81.2 µM | > 100 µM | > 100 µM | > 100 µM | > 100 µM | > 100 µM | 36.7 µM | > 100 µM | > 100 µM | > 100 µM | > 100 µM
CC(NC1=NCCO1)c1ccccc1Cl (stereo unspecified) | > 100 µM | > 100 µM | > 100 µM | > 100 µM | > 100 µM | > 100 µM | > 100 µM | > 100 µM | > 100 µM | > 100 µM | > 100 µM | > 100 µM
ClCc1nc2ccccc2[nH]1 | > 100 µM | > 100 µM | > 100 µM | > 100 µM | > 100 µM | > 100 µM | > 100 µM | > 100 µM | > 100 µM | > 100 µM | > 100 µM | > 100 µM
COc1ccc(/[N+]([O-])=C/c2ccc(OC(=S)S)c(OC)c2)cc1 | > 100 µM | > 100 µM | 93.2 µM | > 100 µM | > 100 µM | 61.1 µM | > 100 µM | > 100 µM | > 100 µM | > 100 µM | > 100 µM | > 100 µM
CC1CCN(C(C)C)P(=S)(Cc2ccccc2)O1 (stereo unspecified) | > 100 µM | > 100 µM | > 100 µM | 40 µM | > 100 µM | > 100 µM | > 100 µM | > 100 µM | > 100 µM | > 100 µM | > 100 µM | > 100 µM
NS(=O)(=O)c1ccc(NC(=O)N/N=C/c2ccccc2[N+](=O)[O-])cc1 | > 100 µM | > 100 µM | > 100 µM | > 100 µM | > 100 µM | 42.7 µM | > 100 µM | > 100 µM | > 100 µM | > 100 µM | > 100 µM | > 100 µM
COC(=O)CCc1ccc(CCC(=O)OC)cc1 | > 100 µM | > 100 µM | > 100 µM | > 100 µM | > 100 µM | > 100 µM | > 100 µM | > 100 µM | > 100 µM | > 100 µM | > 100 µM | > 100 µM
O=c1onc2n1-c1ccc(Cl)cc1C(=S)N1CSCC21 (stereo unspecified) | > 100 µM | > 100 µM | > 100 µM | > 100 µM | > 100 µM | 23.8 µM | > 100 µM | 95.7 µM | 41.9 µM | > 100 µM | 47.7 µM | 69.6 µM
CN(C)Cc1cc(Cl)c(O)c(CN(C)C)c1 | > 100 µM | > 100 µM | > 100 µM | > 100 µM | > 100 µM | > 100 µM | > 100 µM | > 100 µM | > 100 µM | > 100 µM | > 100 µM | > 100 µM
Fc1cc(C2=Nn3c(COc4ccccc4Cl)nnc3S/C2=C\c2ccc(Cl)cc2)c(Cl)cc1Cl | 81.7 µM | 62 µM | 19 µM | 13.4 µM | 25.2 µM | 6.3 µM | > 100 µM | 26.1 µM | > 100 µM | > 100 µM | 39.9 µM | 32.3 µM
C#C[C@]1(O)CC[C@H]2[C@@H]3CCC4=C/C(=N\OCCN5CCCCC5)CC[C@]4(C)[C@H]3CC[C@@]21C | 23.1 µM | 16.4 µM | 6.19 µM | 27.4 µM | 16.5 µM | 8.91 µM | 24.4 µM | 22.2 µM | 10.6 µM | 15.3 µM | 29.9 µM | 8.76 µM
COc1ccc2c(c1)c1c3c(ccc4ncn2c43)N(CCO)CCN=1 | 1.59 µM | 0.648 µM | 0.403 µM | 0.941 µM | 0.468 µM | 0.834 µM | 0.476 µM | 0.214 µM | 0.831 µM | 2.56 µM | 3.64 µM | 0.359 µM
O=C(Nc1ccccc1)N(CCN(Cc1ccccc1)C(=O)Nc1ccccc1)CCN(Nc1ccccc1)C(=O)Nc1ccccc1 | > 100 µM | > 100 µM | > 100 µM | > 100 µM | > 100 µM | > 100 µM | > 100 µM | > 100 µM | > 100 µM | > 100 µM | > 100 µM | > 100 µM
C(=N\c1nc2cc3sc(/N=C/c4ccccc4)nc3cc2s1)/c1ccccc1 | > 100 µM | > 100 µM | > 100 µM | > 100 µM | > 100 µM | > 100 µM | > 100 µM | > 100 µM | > 100 µM | > 100 µM | > 100 µM | > 100 µM
Cc1ncn(-c2ccccc2O)c1C | > 100 µM | > 100 µM | > 100 µM | > 100 µM | > 100 µM | > 100 µM | > 100 µM | > 100 µM | > 100 µM | > 100 µM | > 100 µM | > 100 µM
Nn1c(CCCCCCCCc2nnc(-c3c(O)ccc4ccccc34)n2N)nnc1-c1c(O)ccc2ccccc12 | > 100 µM | > 100 µM | > 100 µM | > 100 µM | > 100 µM | > 100 µM | > 100 µM | > 100 µM | > 100 µM | > 100 µM | > 100 µM | > 100 µM
C[C@H](Nc1nc(N)c(N=O)c(=O)n1C)C(=O)O | > 10 µM | > 10 µM | > 10 µM | > 10 µM | > 10 µM | > 10 µM | > 10 µM | > 10 µM | > 10 µM | > 10 µM | > 10 µM | > 10 µM
S=C(NCc1ccccc1)Nc1sc(=NCc2ccccc2)nc2sc3c(c12)CCN(N1CCc2c(sc4nc(=NCc5ccccc5)sc(NC(=S)NCc5ccccc5)c24)C1)C3 | > 90.8 µM | > 100 µM | > 100 µM | > 79 µM | > 100 µM | > 100 µM | > 100 µM | > 54.2 µM | > 100 µM | > 100 µM | > 72.5 µM | > 81.8 µM
COC(=O)c1cc2c(c(C(=O)OC)c1)CCC2 | > 100 µM | > 100 µM | > 100 µM | > 100 µM | > 100 µM | > 100 µM | > 100 µM | > 100 µM | > 100 µM | > 100 µM | > 100 µM | > 100 µM
CCOC(=O)c1c(N)sc2c1CC(C)CC2 (stereo unspecified) | > 100 µM | > 100 µM | 37.7 µM | > 100 µM | > 100 µM | > 100 µM | > 100 µM | > 100 µM | > 100 µM | 75 µM | > 100 µM | > 100 µM
O=c1[nH]c(Nc2ccc(Br)c(C(F)(F)F)c2)nc2nc[nH]c12 | > 100 µM | 87 µM | 71.8 µM | > 100 µM | > 100 µM | > 100 µM | > 100 µM | > 100 µM | > 100 µM | > 100 µM | > 100 µM | 44.4 µM
CCOC(=O)CNC(=O)C(CCC(=O)N(C)O)NC(=O)CCC(N)C(=O)O (stereo unspecified) | > 100 µM | > 100 µM | > 100 µM | > 100 µM | > 100 µM | > 100 µM | > 100 µM | > 100 µM | > 100 µM | > 100 µM | > 100 µM | > 100 µM
COc1c2c(c3c(c1OC)c(=O)c1ccccc1n3C)OCO2 | > 100 µM | > 100 µM | > 100 µM | > 100 µM | > 100 µM | > 100 µM | > 100 µM | > 100 µM | > 100 µM | > 100 µM | > 100 µM | > 100 µM
O=C(OC1=CCN(Br)C1=O)C1=C(O)C(=O)N(Br)C1 | > 100 µM | 51.6 µM | 33.5 µM | 41.4 µM | 54 µM | > 100 µM | 51.7 µM | 35.6 µM | 69.7 µM | > 100 µM | 65.2 µM | > 100 µM
CCn1c(SCC(=O)N/N=C2\SCC(=O)N2c2ccc(C)cc2)nc2ccccc2c1=O | 75 µM | 62.9 µM | 50 µM | 48.7 µM | 55.6 µM | 43.8 µM | 50.7 µM | 35.9 µM | 36.2 µM | 52.7 µM | > 100 µM | > 100 µM
COc1ccc(C2SCC(=O)N2c2ccc(-n3c(-c4ccccc4)nc4ccccc4c3=O)cc2)cc1 (stereo unspecified) | > 100 µM | > 100 µM | > 100 µM | > 100 µM | > 100 µM | > 100 µM | > 100 µM | > 100 µM | > 100 µM | > 100 µM | > 100 µM | > 100 µM
C=C1C(C(=O)OC)[C@H]1C(=O)OC (stereo partly specified) | > 100 µM | > 100 µM | > 100 µM | > 100 µM | > 100 µM | > 100 µM | > 100 µM | > 100 µM | > 100 µM | > 100 µM | > 100 µM | > 100 µM
